# Data taken from patent publication US12509431B2, “1,4-dihydroquinazolinone compounds and uses thereof” (Edgewise Therapeutics, Inc., priority 2022, dated 2025).
# Like-named read-outs stand apart in the source and are kept apart here.
# Assays:
# [1] = biological target: T1, Porcine Ventricle myofibrils (left ventricle of Yucatan minipigs) (Sus scrofa, UniProt P79293); assay: Myofibril ATPase assay (PK/LDH NADH-coupled), ventricle myofibrils; assay type: biochemical
# T1 construct: Myofibrils from porcine cardiac muscle was isolated from the left ventricle of Yucatan minipigs; tissue Exemplar Genetics; host or cells: left ventricle of Yucatan minipigs
# Procedure, shortened: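 Yucatan minipig left-ventricle myofibrils; ATPase measured by PK/LDH-coupled NADH loss at 340 nm, read every 1.5-2 min for 75 min. Slopes normalized to vehicle (100%) and fit to 4-parameter logistic model; EC25 and, for inhibitors, EC50 calculated.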
# [2] = system: Rabbit Skeletal myofibrils (rabbit psoas muscle); assay: Myofibril ATPase assay (PK/LDH NADH-coupled), skeletal myofibrils; assay type: biochemical
# Procedure, shortened: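 Rabbit psoas myofibrils in pCa (PIPES/CaCl2/EGTA, pH 7.0) buffer; ADP coupled via PK/LDH to NADH loss, read at 340 nm every 1.5–2 min for 75 min. Slopes normalized to vehicle (100%) and fit to 4-parameter logistic for EC25, plus EC50 for inhibitors.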
# [3] = system: isoflurane-anesthetized SD rats; assay: In vivo echocardiography of systolic cardiac performance (FS, SWT, HR, LV volumes) after a single oral dose; conditions: Rattus norvegicus, single dose 10 mg/kg PO, ~2 hrs post-dosing, vs. vehicle
# Method: Experiments were performed to evaluate the in vivo ability of the compounds of the disclosure to modulate systolic cardiac performance. Non-invasively echocardiography was used to assess cardiac indicators in isoflurane-anesthetized SD rats. A set of conscious rats were treated with either vehicle control (0 mg/kg PO; n=78) or a single dose of an test compound (10 mg/kg PO, n=2 to 6/compound) via oral gavage. Cardiac function/geometry were recorded at two separate time-points/days: once prior to dosing (i.e., at baseline, day −2) and at ˜2 hrs post-dosing (day 0).
# In these experiments, heart rate (HR), echocardiography-derived indices of left-ventricular systolic performance, as well as dimensions/volumes were measured using a high-frequency transducer and parastemnal long-axis transthoracic views (Vevo3100, VisualSonic). LV fractional shortening (FS), an index of systolic function, was defined as the end-diastole normalized change in internal dimensions divided by the […] (LVid) of the left ventricle between end-systole (LVids) and end-diastole (LVidd) (i.e., FS=100·[LVidd−LVids]/LVidd). LV volumes were derived using the Teichholz formula (LVV=7·LVid^3/[2.4+LVid]). In addition, a systolic wall-thickening index (SWT) was also evaluated. SWT is defined as the relative ratio (end-diastole normalized) of left-ventricular (anterior and posterior) wall-thickness change during systole; i.e., SWT=I{[(anterior LV wall thickness in systole−anterior LV wall thickness in diastole)][…][(posterior LV wall thickness in systole−posterior LV wall thickness in diastole)]}/{2*diastolic thickness}. In all cases, blood samples were taken (via either tail-vein micro-sampling or cardiac-puncture) at the time of each echocardiographic examination in order to establish pharmacokinetic (PK)/pharmacodynamics (PD) relationships.
# Porcine Atria myofibrils = assay: Myofibril ATPase assay (PK/LDH NADH-coupled), atria myofibrils; assay type: biochemical
# Procedure, shortened: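 Porcine atrial myofibril ATPase followed via PK/LDH-coupled NADH depletion, absorbance at 340 nm read every 1.5-2 min over 75 min. Slopes (mAU/min) normalized to vehicle as 100% and fit to a 4-parameter logistic; EC25% derived, plus EC50% for inhibitors.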
# myosin+removed RLC = biological target: T2, myosin+removed RLC (Sus scrofa, UniProt P79293); assay: NADH-coupled actin-activated ATPase assay, myosin + removed RLC; assay type: biochemical; conditions: 2 μM myosin, rabbit skeletal actin, 25° C., 1% DMSO
# T2 construct: Full-length myosin was resuspended to 1 mg/mL
# Method: (§1) Full-length myosin was resuspended to 1 mg/mL in a buffer containing 500 mM KCl, 10 mM KPi, 15 mM CDTA, pH 8.5. Triton-X was then added to a final concentration of […], and the suspension was agitated for 15 minutes at room temperature to selectively remove the regulatory light chain (RLC). RLC-removed myosin was then precipitated and collected and resuspended in a buffer containing 400 mM KCl, 50 mM Mops, pH 7, 2 mM MgCl2, and 1 mM DTT. Recombinantly expressed and purified human ventricle RLC was added in a 3-fold molar excess to myosin and incubated on ice for 2 hours to allow for reassociation of the RLC onto myosin. Triton (0.1%) was added to the reaction to prevent any non-specific binding events. RLC-exchanged myosin was then precipitated and collected and resuspended in a buffer containing 12 mM PIPES, pH 6.8, […], 2 mM MgCl2, and 1 mM DTT. RLC removal and exchange were confirmed by SDS-PAGE and proteins were visualized using coomassie stain.
# (§2) Myosin was resuspended in buffer A (f.c.=12 mM PIPES, pH 6.8, 30 mM KCl, 2 mM MgCl2, 1 mM DTT, 0.1 mg/mL BSA, 0.01% (v/v) Antifoam 204, and 0.6% (v/v) PK/LDH (final reaction contains ≥3.6 U/mL PK and >5.4 U/mL LDH)) at final concentrations of 1 μM for myosin+native RLC and 2 μM for myosin+removed RLC and myosin+human ventricle RLC. Buffer A was then mixed with an equal volume of buffer B (f.c.=12 mM PIPES, pH 6.8, 30 mM KCl, 2 mM MgCl2, 1 mM DTT, 0.1 mg/mL BSA, 0.01% (v/v) Antifoam 204, 0.5 mM NADH, 1.5 mM phosphoenolpyruvate, 1 mM ATP, and 0.3 mg/mL filamentous rabbit skeletal actin) in a 384-well plate. Dose-dependent compound effects were assessed by adding the compounds at varying concentrations between 100 μM and 2 nM, all with a constant final DMSO concentration of 1% v/v. The reactions were run at a constant temperature of 25° C. in the plate reader to monitor the change in A340 over time. Measurements were taken every 90 sec for 75 min to generate raw time-domain absorbance data, which was processed to normalized reaction rates. Normalized enzymatic rates were calculated, using rates observed in 1% (v/v) in DMSO as 100% and 0 slope as 0%. Compound-specific activity curves were generated by plotting the normalized rates versus compound concentration and fitting the data to a 4-parameter logistic model. In addition to the fit parameters, the IC25% was calculated, relative to the 100% normalized value.
# myosin+native RLC = biological target: T3, myosin+native RLC (Sus scrofa, UniProt P79293); assay: NADH-coupled actin-activated ATPase assay, myosin + native RLC; assay type: biochemical; conditions: 1 μM myosin, rabbit skeletal actin, 25° C., 1% DMSO
# T3 construct: Full-length myosin was resuspended to 1 mg/mL
# Method: as §1, §2
# [4] = biological target: T4, myosin+human ventricle RLC (Sus scrofa, UniProt P79293); assay: NADH-coupled actin-activated ATPase assay, myosin + human ventricle RLC; assay type: biochemical; conditions: 2 μM myosin, rabbit skeletal actin, 25° C., 1% DMSO
# T4 construct: Full-length myosin was resuspended to 1 mg/mL
# Method: as §1, §2
# [5] = EDV (LV volume, Teichholz formula), read-out: EDV % vs. VEH
# [6] = LV fractional shortening, read-out: FS % vs. VEH
# [7] = heart rate, read-out: HR % vs. VEH
# [8] = systolic wall-thickening index, read-out: SWT % vs. VEH
# T2 sequence (P79293 whole entry): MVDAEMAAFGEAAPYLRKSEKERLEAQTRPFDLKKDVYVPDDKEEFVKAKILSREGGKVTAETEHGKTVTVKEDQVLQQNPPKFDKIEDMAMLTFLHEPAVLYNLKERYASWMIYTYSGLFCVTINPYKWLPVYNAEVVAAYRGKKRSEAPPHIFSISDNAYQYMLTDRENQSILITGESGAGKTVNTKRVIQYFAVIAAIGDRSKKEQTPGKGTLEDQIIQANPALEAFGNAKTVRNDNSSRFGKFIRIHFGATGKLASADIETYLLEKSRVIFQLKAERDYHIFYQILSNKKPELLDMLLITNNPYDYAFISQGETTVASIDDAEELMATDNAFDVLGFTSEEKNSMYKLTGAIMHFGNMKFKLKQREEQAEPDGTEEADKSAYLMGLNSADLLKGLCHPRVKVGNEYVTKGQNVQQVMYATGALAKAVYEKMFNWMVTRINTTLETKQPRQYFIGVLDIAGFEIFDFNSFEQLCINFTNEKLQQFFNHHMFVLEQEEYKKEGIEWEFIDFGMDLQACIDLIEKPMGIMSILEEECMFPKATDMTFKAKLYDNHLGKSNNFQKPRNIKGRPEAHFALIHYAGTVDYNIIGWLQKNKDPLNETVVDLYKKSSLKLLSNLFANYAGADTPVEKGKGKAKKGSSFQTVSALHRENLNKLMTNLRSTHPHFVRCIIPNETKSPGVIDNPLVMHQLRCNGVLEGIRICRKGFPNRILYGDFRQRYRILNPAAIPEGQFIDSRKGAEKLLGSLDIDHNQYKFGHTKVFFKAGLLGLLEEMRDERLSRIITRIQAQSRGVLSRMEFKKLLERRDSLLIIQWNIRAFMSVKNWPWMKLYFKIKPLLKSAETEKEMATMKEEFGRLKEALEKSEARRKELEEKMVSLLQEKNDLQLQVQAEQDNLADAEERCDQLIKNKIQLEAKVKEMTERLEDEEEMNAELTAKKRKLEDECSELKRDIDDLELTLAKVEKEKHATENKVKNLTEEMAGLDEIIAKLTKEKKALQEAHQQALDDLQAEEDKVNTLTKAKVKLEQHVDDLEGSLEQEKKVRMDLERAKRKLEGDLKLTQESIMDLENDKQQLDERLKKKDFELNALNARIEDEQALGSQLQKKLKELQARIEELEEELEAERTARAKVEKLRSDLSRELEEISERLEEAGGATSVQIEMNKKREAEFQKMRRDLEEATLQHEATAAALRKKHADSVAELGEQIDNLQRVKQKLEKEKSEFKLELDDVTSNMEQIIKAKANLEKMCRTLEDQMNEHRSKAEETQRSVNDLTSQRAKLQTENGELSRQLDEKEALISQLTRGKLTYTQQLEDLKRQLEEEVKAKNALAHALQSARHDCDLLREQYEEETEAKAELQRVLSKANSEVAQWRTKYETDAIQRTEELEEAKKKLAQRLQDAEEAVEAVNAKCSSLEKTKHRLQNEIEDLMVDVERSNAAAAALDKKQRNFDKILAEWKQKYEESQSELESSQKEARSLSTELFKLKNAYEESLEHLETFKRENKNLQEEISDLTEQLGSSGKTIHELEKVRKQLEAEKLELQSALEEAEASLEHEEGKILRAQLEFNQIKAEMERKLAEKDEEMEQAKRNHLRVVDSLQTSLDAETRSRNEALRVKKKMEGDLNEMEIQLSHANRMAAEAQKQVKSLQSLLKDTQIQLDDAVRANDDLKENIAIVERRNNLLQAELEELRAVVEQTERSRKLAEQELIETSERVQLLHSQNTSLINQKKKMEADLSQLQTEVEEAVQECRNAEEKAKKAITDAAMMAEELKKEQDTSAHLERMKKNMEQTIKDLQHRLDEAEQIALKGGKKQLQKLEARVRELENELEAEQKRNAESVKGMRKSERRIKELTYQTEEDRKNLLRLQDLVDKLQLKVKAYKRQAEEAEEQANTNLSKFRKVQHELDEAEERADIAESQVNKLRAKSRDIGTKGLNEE
# T3 sequence (P79293 whole entry): as above
# T4 sequence (P79293 whole entry): as above
# T1 sequence (P79293 whole entry): as above
SMILES,Porcine Ventricle IC25 ([1]; Table 8) [µM],Rabbit Psoas IC25 ([2]; Table 8) [µM],Porcine Atria IC25 (Porcine Atria myofibrils; Table 8) [µM],"Potency, Full-length myosin + RLC removed (myosin+removed RLC) [µM]","Potency, Full-length myosin + native porcine ventricle RLC (myosin+native RLC) [µM]","Potency, Full-length myosin + exchanged human ventricle RLC [4] [µM]",Porcine Ventricle IC25 ([1]; Table 7) [µM],Rabbit Psoas IC25 ([2]; Table 7) [µM],Porcine Atria IC25 (Porcine Atria myofibrils; Table 7) [µM],"change in vivo at 10 mg/kg [3, 5] [%]","change in vivo at 10 mg/kg [3, 6] [%]","change in vivo at 10 mg/kg [3, 7] [%]","change in vivo at 10 mg/kg [3, 8] [%]"
"Cc1nc(C#N)cnc1C(C)NC(=O)CN1Cc2c(ccc(F)c2F)NC1=O (single isomer, unassigned) [Compound B55]",0.0533,0.0114,0.05,–,–,–,–,–,–,70,-36,-5,10
C[C@H](NC(=O)CN1Cc2c(ccc(F)c2F)NC1=O)c1ncc(C#N)cc1F [Compound B142],0.05434,0.02168,0.04,–,–,–,–,–,–,21,-81,6,-78
N#Cc1c(F)ccc2c1CN(CC(=O)N[C@@H](CO)c1ccc(F)cc1F)C(=O)N2 [Compound B152],0.2946,0.03953,0.17,–,–,–,–,–,–,-6,6,1,-2
C[C@H](NC(=O)CN1Cc2cc(F)ccc2NC1=O)c1ccc(C#N)cn1 [Compound B172],20.93,2.013,2.94,>100.0,12.32,14.39,–,–,–,–,–,–,–
C[C@@H](NC(=O)CN1C(=O)Nc2ccc(F)c(F)c2C1O)c1ncc(C#N)cc1F (some centres unmarked) [Compound B327],–,–,–,–,–,–,–,–,–,-2,-1,5,10

# Continued, in another order:
Porcine Ventricle IC25 ([1]; Table 8) [µM],Rabbit Psoas IC25 ([2]; Table 8) [µM],Porcine Atria IC25 (Porcine Atria myofibrils; Table 8) [µM],"Potency, Full-length myosin + RLC removed (myosin+removed RLC) [µM]","Potency, Full-length myosin + native porcine ventricle RLC (myosin+native RLC) [µM]","Potency, Full-length myosin + exchanged human ventricle RLC [4] [µM]",Porcine Ventricle IC25 ([1]; Table 7) [µM],Rabbit Psoas IC25 ([2]; Table 7) [µM],Porcine Atria IC25 (Porcine Atria myofibrils; Table 7) [µM],SMILES,"change in vivo at 10 mg/kg [3, 5] [%]","change in vivo at 10 mg/kg [3, 6] [%]","change in vivo at 10 mg/kg [3, 7] [%]","change in vivo at 10 mg/kg [3, 8] [%]"
1.905,0.242,0.13,–,–,–,–,–,–,O=C(CN1Cc2cc(F)ccc2NC1=O)N[C@@H](CO)c1ncc(F)cc1F [Compound B181],-6,-13,8,-5
0.15,0.06,0.06,>100.0,0.59,0.49,–,–,–,C[C@H](NC(=O)C1(N2Cc3c(ccc(F)c3F)NC2=O)CC1)c1ncc(C#N)cc1F [Compound B269],–,–,–,–
100.00,50.29,1.56,–,–,–,–,–,–,C[C@@H](NC(=O)CN1Cc2cc(F)c(F)cc2NC1=O)c1ncc(C#N)cc1F [Compound B357],5,-8,-5,-5
0.77,0.05,0.07,–,–,–,–,–,–,[2H]C1([2H])c2c(ccc(F)c2F)NC(=O)N1CC(=O)N[C@@H](C)c1ncc(C#N)cc1F [Compound B366],82,-71,-2,-41
0.55,0.78,0.32,–,–,–,–,–,–,[2H]C1([2H])c2c(ccc(F)c2F)NC(=O)N1CC(=O)N[C@H](C)c1ncc(C#N)cc1F [Compound B367],-6,-31,10,-32
–,–,–,>100.0,2.17,1.92,1.309,0.04764,0.15,C[C@H](NC(=O)CN1C(=O)Nc2cccnc2C12CC2)c1ncc(C#N)cc1F [Compound N26],–,–,–,–
